Entries after “also recorded” stand apart in the source; their conditions may differ.
What was measured:
MEK = MEK inhibition in vivo (stated in summary, no method given)
[1] = system: adjuvant-induced arthritis in rats; test: Adjuvant-induced arthritis (AIA) in rats; format: in vivo
Experimental: Male Lewis rats (7-9 weeks of age; 8 per group for arthritis, 4 per group for normal control) were acclimated for 7 days after arrival.
Acclimated animals were randomized into groups by body weight and then anesthetized with Isoflurane and given lipoidal amine (LA) in Freund's complete adjuvant (100 μL injection of 7 mg LA, intradermal administration at the base of the tail, Day 0).
Caliper measurements of normal (pre-disease) right and left ankle joints were taken on day 7 post-adjuvant injection. On day 8, dosing began for vehicle and AR-14 treatment groups. Methotrexate treatment (0.075 mg/kg) began on day 0 prior to adjuvant injection.
Once enrolled in the treatment group, treatment with once daily oral doses of AR-14 (1, 3, 10 or 30 mg/kg) was initiated. […] Animals receiving vehicle or compound were enrolled and daily dosing was initiated using a volume of 5 mL/kg for oral solutions on days 8-14. Rats were weighed on days 8-14 and caliper measurements of ankles were taken every day. Final body weights and caliper measurements of ankles and paws were taken on day 15. On day 15, animals were euthanized, both hind paws were removed, and the hind paws weighed and then placed in formalin for histopathologic analyses. Spleens were also removed, weighed and placed in formalin for histopathologic analyses.

[2] = system: type II collagen-induced arthritis in rats; test: Established type II collagen-induced arthritis (CIA) in rats; format: in vivo
Experimental: Type II collagen-induced arthritis (CIA) in rats is an experimental model of arthritis that has a number of pathologic, immunologic, and genetic features in common with rheumatoid arthritis.
Female Lewis rats (7-9 weeks of age; 8 per group for arthritis, 4 per group for normal control) were acclimated for 7 days after arrival.
Acclimated animals were anesthetized with Isoflurane. The disease was induced by immunization of the rats with type II collagen (equal mixture of 4 mg/mL bovine type II collagen in 0.01 N acetic acid and Freund's incomplete adjuvant) by injection (day 0). On day 6, the rats were anesthetized again for the second collagen injection. Each animal received 300 μL of the collagen mixture on days 0 and 6, which was spread over 3 sites on the back.
Caliper measurements of normal (pre-disease) right and left ankle joints were taken on day 9 post-collagen injection. On days 10-11, onset of arthritis occurred and rats were randomized into treatment groups. Randomization into each group was done after ankle joint swelling was established in at least one hind paw.
Once enrolled in the treatment groups, treatment with once daily oral dosing of AR-14 (1, 3, 10, 30 or 60 mg/kg) or indomethacin (1 mg/kg) was initiated. Animals receiving vehicle or compound were enrolled and daily dosing was initiated using a volume of 5 mL/kg for oral solutions. ENBREL (etanercept) treatment was on days 11 and 15 (10 mg/kg) by subcutaneous administration. Rats were weighed on days 11-18 and caliper measurements of ankles were taken every day. Final body weights were taken on day 19. On day 19, animals were euthanized, both hind paws and knees were removed, hind paws were weighed and then (with knees) placed in formalin.
Following 1-2 days in fixative and then 4-5 days in decalcifier, the ankle joints and knees were processed, embedded, sectioned and stained with toluidine blue.
A clinical scoring index was used to assess disease progression. Collagen arthritic ankles and knees were given scores of 0-5 for inflammation, pannus formation and bone resorption according to the criteria in Tables 1-7.
Clinical data for ankle joint diameter were analyzed by determining the area under the dosing curve (AUC). For calculation of AUC, the daily measurements of ankle joints (using a caliper) for each rat were entered into Microsoft Excel and the area between the treatment days after the onset of disease to the termination day was computed. Means for each group were determined and percent inhibition from arthritis controls was calculated by comparing values for treated and normal animals. Data were analyzed by the Mann Whitney or Student's t test. Paw weights and histologic parameters (mean±SE) for each group were analyzed for differences using the Mann Whitney or Student's t test. In both cases, significance was set at p≦0.05.
Percent inhibition of paw weight and AUC was calculated using the following formula: % Inhibition=A−(B/A)×100
wherein A=(Mean Disease Control−Mean Normal) and B=(Mean Treated−Mean Normal).

[3] = system: indomethacin-induced IBD in rats; test: Indomethacin-induced inflammatory bowel disease (model of Crohn's disease) in rats; format: in vivo
Experimental: This study evaluated AR-14 (PO, QD) in a model of Crohn's disease (indomethacin induced intestinal injury) in rats to determine if beneficial effects could be detected in this IBD model.
Rats received two subcutaneous administrations of indomethacin (7.5 mg/kg, in 5% NaHCO3) spaced 24 hours apart. Rats received once daily oral doses of vehicle, AR-14 (1, 3, 10 or 30 mg/kg) or dexamethasone (0.1 mg/kg). Rats were euthanized and evaluated for effects of treatment at day 4 post-initial indomethacin injection. Body weights were taken as well as intestinal weights per 10 cm of area at risk.
A clinical scoring index (Table 8) was used to assess disease progression. Intestines were scored for gross lesions and multiple sections of gut taken for histology (5 sections per rat spaced equally along area at risk).
Five equally spaced sections from area at risk were scored for necrosis and inflammation (0,0) (1,3) etc., according to the criteria in Tables 9 and 10.

[4] = system: carrageenan paw edema in rats; test: Carrageenan paw edema model in rats; format: in vivo, rat; conditions: for paw weight: 3, 10 and 30 mg/kg oral, 2 h before carrageenan, 4 h after injection, FIG. 11; for ED50: Rattus norvegicus, oral, single dose, read-out: ED50 (paw weight); for activity compared with indomethacin: vs indomethacin 2 mg/kg (positive control)
Experimental: The rat carrageenan paw edema model of inflammation was utilized to evaluate the effectiveness of AR-13 and AR-14 in ameliorating swelling and inflammation.
Male Lewis rats (7-9 weeks of age; 10 per group) were acclimated for at least 7 days after arrival.
Acclimated animals were randomized into groups by body weight. Animals were treated orally with AR-13 or AR-14 (3, 10 or 30 mg/kg) or with a positive control (indomethacin, 2 mg/kg). After 2 hours, the animals were anesthetized with Isoflurane and given an intradermal injection of 1.2% carrageenan into the right hind footpad. Four hours after the carrageenan injection, the animals were sacrificed with carbon dioxide inhalation and both paws were removed at the medial malleolus and weighed. The difference in weight between the right (carrageenan) and left (normal) paws was calculated.

[5] = 10 and 30 mg/kg vs dexamethasone 0.1 mg/kg

O=C(NOCCO)c1cn2ccnc2c(Cl)c1Nc1ccc(Br)cc1Cl [AR-14, 7-(4-bromo-2-chlorophenylamino)-8-chloroimidazo[1,2-a]pyridine-6-carboxylic acid (2-hydroxyethoxy)-amide]
selectivity for MEK in vivo (MEK): selective inhibitor of MEK in vivo | progression of established disease ([1]; 30 mg/kg): stopped the progression of established disease and causes improvement to normal | body weight loss ([1]; 30 mg/kg, after 15 days, FIG. 5): significantly inhibited | joints (paw weight study) ([1]; 30 mg/kg, after 15 days, comparable to methotrexate): Near normal joints with minimal inflammation | splenomegaly (relative spleen weight) ([1]; 3, 10 and 30 mg/kg, after 15 days, FIG. 7): significantly inhibited | inhibition of splenomegaly compared with methotrexate ([1]; 10 and 30 mg/kg): comparable to that seen with methotrexate | activity compared with methotrexate ([1]; AR-14 30 mg/kg vs methotrexate 0.075 mg/kg): equivalent to methotrexate | tolerability ([1]; all doses administered (1, 3, 10, 30 mg/kg, once daily oral)): well tolerated | ankle swelling (paw diameter) compared to vehicle control ([1]; all doses tested, over 15 days, FIG. 4): significantly inhibited | paw weight gain (edema/inflammation) compared to vehicle control ([1]; all doses, after 15 days, FIG. 6): significantly inhibited | acute gross and microscopic inflammation ([1]; once daily oral 30 mg/kg): reversal | progression of established disease (arthritis) ([2]; 10 mg/kg once daily oral): stopped the progression; also recorded: significantly inhibited | ankle histopathology (joints) ([2]; 10 mg/kg, after 7 days): Near normal joints with minimal inflammation | established disease, improvement ([2]; 60 mg/kg once daily oral): improvement to normal | pannus formation, cartilage damage and bone resorption (ankle histopathology) ([2]; 1 and 3 mg/kg, after 7 days, FIG. 3): significantly inhibited | ankle histopathology compared with indomethacin or ENBREL ([2]; AR-14 10 mg/kg): significantly better than indomethacin or ENBREL | activity on ankle diameter compared with ENBREL (etanercept) ([2]; AR-14 10 mg/kg vs ENBREL 10 mg/kg s.c.): better than that of ENBREL | activity on ankle diameter compared with indomethacin ([2]; AR-14 10 mg/kg vs indomethacin 1 mg/kg): equivalent to indomethacin | ED50 ([2]; Rattus norvegicus, 168 h, after 7 days, once daily oral, read-out: ED50 (inhibition of body weight loss)): 4.57 mg/kg | tolerability ([2]; all doses administered (1, 3, 10, 30, 60 mg/kg, once daily oral)): well tolerated | ankle swelling (ankle/paw diameter) compared to vehicle control ([2]; all doses tested (1-60 mg/kg), over 7 days, FIG. 1): significantly inhibited | body weight loss ([2]; all doses tested, after 7 days, FIG. 2): significantly inhibited | joint destruction ([2]; dose of 1 mg/kg, 1 mg/kg): significantly inhibited; also recorded: significant inhibition | body weight ([2]; doses of 30 and 60 mg/kg, after 7 days): near normal body weights | acute gross and microscopic inflammation ([2]; once daily oral 10 mg/kg): reversal | histopathology of the gut (necrosis and inflammation scored) compared with dexamethasone ([3]; 30 mg/kg, FIG. 10): significantly more efficacious than dexamethasone | small intestine weight gain as a result of edema/inflammation ([3]; 3, 10 and 30 mg/kg, after 4 days, FIG. 9): significantly inhibited | inhibition of gross lesion score compared with dexamethasone [3, 5]: significantly better than dexamethasone | inhibition of intestinal inflammation and edema, small intestine necrosis and inflammation compared with dexamethasone [3, 5]: significantly better than dexamethasone | gross lesion score (small intestine) ([3]; all doses (1, 3, 10, 30 mg/kg), after 4 days, FIG. 8): significantly inhibited | tolerability ([3]; all doses administered): well tolerated | inhibition of disease (gut score and weight and microscopic changes) ([3]; once daily dosing at 10 mg/kg): significant inhibition | paw weight [4]: significantly inhibit | ED50 [4]: ~4 mg/kg | activity compared with indomethacin [4]: superior to the positive control indomethacin

O=C(NOCCO)c1cn2ccnc2c(Cl)c1Nc1ccc(Br)cc1F [AR-13, 7-(4-bromo-2-fluorophenylamino)-8-chloroimidazo[1,2-a]pyridine-6-carboxylic acid (2-hydroxyethoxy)-amide]
paw weight [4]: significantly inhibit | ED50 [4]: ~10 mg/kg | activity compared with indomethacin [4]: superior to the positive control indomethacin

— patent US7538120B2, “Method of treating inflammatory diseases” (Array Biopharma Inc., priority 2003, dated 2009)
